# Columns and labels:
# [1] = test system: human ES cell (hESC) lines (H1, H9, M1, M10); assay: Culture of human ES cell lines in pEPSCM minus ACTIVIN A (colony formation); format: cell-based; details: removing ACTIVIN A (20 ng/ml) from pEPSCM
# Description: Human ESCs have been widely used in studying human embryo development in vitro and hold great potential for regenerative medicine. The finding that inhibition of SRC and Tankyrases is sufficient to convert mouse ESCs to mEPSCs and that these two inhibitors are required for the generation of pEPSCs raises the possibility that similar in vitro culture conditions may also work for other mammalian species. To explore this possibility, four established human ES cell (hESC) lines (H1, H9, Man1 or M1, and Man10 or M10 cells) are cultured in pEPSCM and passaged them up to three times. […] Removing ACTIVIN A (20 ng/ml) from pEPSCM led to considerably fewer cell colonies formed from H1 (<1.0%) and M1 (5.0%) ESC cultures, while none from H9 or M10 (Extended Data FIG. 7a), which is consistent with the inherent between-line heterogeneity of human ESCs. With further refinement of the culture conditions (for example, replacing WH-4-023 with another SRC inhibitor A419259 in hEPSCM, see Methods), morphologically homogenous and stable cell lines were established from single-cell sub-cloned H1 (H1-EPSCs) and M1 cells (M1-EPSCs) (FIG. 3a).
# [2] = test system: Dox dependent porcine iPSCs; assay: Screening for the porcine EPSC culture conditions; format: cell-based; details: 1.0 μM, irrespective of whether Dox was present
# Protocol: Dox dependent porcine iPSCs were dissociated in 0.25% trypsin/EDTA solution (Gibco, Cat. No. 25500-054) and seeded in 24-well STO feeder plates at a density of 1×10^4 cells per well. The cells were cultured in M15 supplemented with Dox (Sigma, Cat. No. D9891), Vitamin C (Sigma, Cat. No. 49752-100G) and 10 ng/ml bFGF (SCI) for two days before the culture media was switched to medium supplemented with indicated small molecules and cytokines (Supplementary Table 1). M15 and N2B27 media: see above. AlbumMax media: DMEM/F12 (Gibco, Cat. No. 21331-020), 20% AlbumMax II (Gibco, Cat. No. 11021-037), […] Human Insulin (Sigma, Cat. No. 91077C), 2×B27 Supplement, […] IGFII (R&D, Cat. No. 292-G2-250), 1×Glutamine Penicillin-Streptomycin (Thermo Fisher Scientific, Cat. No. 11140-050), 1×NEAA (Thermo Fisher Scientific, Cat. No. 10378-016) and 0.1 mM 2mercaptoethanol (Sigma, Cat. No. M6250). 20% KSR media: DMEM/F-12 (Gibco, Cat. No. 21331-020), 20% KnockOut Serum Replacement (KSR) (Gibco, Cat. No. 10828-028), 1× glutamine penicillin-streptomycin (Thermo Fisher Scientific, Cat. No. 11140-050), 1×NEAA (Thermo Fisher Scientific, Cat. No. 10378-016) and 0.1 mM 2-mercaptoethanol (Sigma, Cat. No. M6250). […]
Compound,cell colonies formed ([1]; H1 ESC culture) [%],cell colonies formed ([1]; H9),cell colonies formed ([1]; M1 ESC culture) [%],cell colonies formed ([1]; M10),survival of porcine iPSCs / porcine cells in the screens [2],survival of porcine iPSCs / porcine cells in the screens ([2]; listed as PD-0325901)
ACTIVIN A: Human Recombinant ACTIVIN A cytokine,< 1.0,none,5.0,none,–,–
O=C(NOC[C@H](O)CO)c1ccc(F)c(F)c1Nc1ccc(I)cc1F [PD0325901],–,–,–,–,deleterious to porcine cells,rapidly lost

# — US20220145264A1, “CULTURE MEDIUM FOR MAMMALIAN EXPANDED POTENTIAL STEM CELLS, COMPOSITION, AND METHODS THEREOF” (THE UNIVERSITY OF HONG KONG, priority 2019, published 2022)
